Source: the supplement of paper PMC10307832

What was measured:
Assay in all cases: relative viability (nuclei count vs DMSO), 5 days (fraction); higher = more cells survive
[1] = compound: C1=CC=C2C(=C1)N=C(S2)C(C#N)C3=NC(=NC=C3)NCCC4=CN=CC=C4 + CS(=O)(=O)N1CCN(Cc2cc3nc(-c4cccc5[nH]ncc45)nc(N4CCOCC4)c3s2)CC1 [Pictilisib] (partner 1 µM)
Method in brief: (§1)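 Medians of duplicate plates are given as relative viability. That measure is the nuclei count in treated wells divided by the count in vehicle wells. Counts were taken on 4× images of lung cancer cell lines in 1536-well plates, 5 days after pin-tool dosing the day after seeding with one drug alone or a fixed anchor-drug dose plus five library-drug doses (not always all listed) in √10 steps.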

Vandetanib + Decitabine = compound: COc1cc2/c(=N/c3ccc(Br)cc3F)nc[nH]c2cc1OCC1CCN(C)CC1 [Vandetanib] + Nc1ncn([C@H]2C[C@H](O)[C@@H](CO)O2)c(=O)n1 [Decitabine] (partner 2 µM)
Method in brief: as §1

NVP-TAE684 + Lapatinib = compound: COc1cc(N2CCC(N3CCN(C)CC3)CC2)ccc1Nc1ncc(Cl)c(Nc2ccccc2S(=O)(=O)C(C)C)n1 [NVP-TAE684] + CS(=O)(=O)CCNCc1ccc(-c2ccc3ncnc(Nc4ccc(OCc5cccc(F)c5)c(Cl)c4)c3c2)o1 [Lapatinib] (partner 2 µM)
Method in brief: as §1

Vandetanib + Crizotinib = compound: COc1cc2/c(=N/c3ccc(Br)cc3F)nc[nH]c2cc1OCC1CCN(C)CC1 [Vandetanib] + C[C@@H](Oc1cc(-c2cnn(C3CCNCC3)c2)cnc1N)c1c(Cl)ccc(F)c1Cl [Crizotinib] (partner 1 µM)
Method in brief: as §1

Cell Line	relative viability ([1]; first compound 0.005 µM)	relative viability ([1]; first compound 0.01581 µM)	relative viability ([1]; first compound 0.05 µM)	relative viability ([1]; first compound 0.1581 µM)	relative viability ([1]; first compound 0.5 µM)	relative viability (Vandetanib + Decitabine; first compound 0.02 µM)	relative viability (Vandetanib + Decitabine; first compound 0.06325 µM)	relative viability (Vandetanib + Decitabine; first compound 0.2 µM)	relative viability (Vandetanib + Decitabine; first compound 0.6325 µM)	relative viability (Vandetanib + Decitabine; first compound 2 µM)	relative viability (NVP-TAE684 + Lapatinib; first compound 0.2 µM)	relative viability (NVP-TAE684 + Lapatinib; first compound 0.6325 µM)	relative viability (NVP-TAE684 + Lapatinib; first compound 2 µM)	relative viability (Vandetanib + Crizotinib; first compound 0.02 µM)	relative viability (Vandetanib + Crizotinib; first compound 0.06325 µM)	relative viability (Vandetanib + Crizotinib; first compound 0.2 µM)	relative viability (Vandetanib + Crizotinib; first compound 0.6325 µM)	relative viability (Vandetanib + Crizotinib; first compound 2 µM)
NCI-H1666	0.474	0.39	0.369	0.402	0.332	0.74	0.675	0.731	0.757	0.553	0.588	0.447	0.283	1.05	0.894	0.974	0.859	0.793
COR-L23	0.531	0.792	0.725	0.952	0.762	0.447	0.442	0.491	0.401	0.422	0.661	0.898	0.538	0.698	0.623	0.114	0.671	0.729
NCI-H460	0.355	0.306	0.358	0.506	0.353	0.459	0.446	0.338	0.532	0.49	0.903	1.29	0.441	0.902	0.786	0.0179	0.972	0.804
